From US4769386A, “Imidazolylthioalkenoic acids and -alkenols and leukotriene antagonistic composition containing them” (Smithkline Beckman Corporation, priority 1986, dated 1988)
Structures can show the parent of a compound that is named as a salt. Where two headings read alike, the source gives them in different places.

Biological target: T1, leukotriene induced contraction of guinea pig tracheal tissues (LTD4) (Cavia porcellus, UniProt Q2NNR5)
T1 construct: from tissue; host or cells: guinea pig (adult male albino Hartley strain) tracheal spiral strips
T1 sequence (Q2NNR5 1-340): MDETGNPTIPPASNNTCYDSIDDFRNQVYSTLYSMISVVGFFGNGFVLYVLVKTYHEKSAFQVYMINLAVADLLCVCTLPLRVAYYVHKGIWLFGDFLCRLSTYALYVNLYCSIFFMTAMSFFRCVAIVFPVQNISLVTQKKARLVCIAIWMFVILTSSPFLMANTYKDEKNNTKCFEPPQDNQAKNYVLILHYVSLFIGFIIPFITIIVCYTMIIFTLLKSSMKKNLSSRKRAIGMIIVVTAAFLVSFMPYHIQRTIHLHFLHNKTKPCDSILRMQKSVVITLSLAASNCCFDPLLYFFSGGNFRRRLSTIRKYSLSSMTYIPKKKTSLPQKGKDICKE
Test: leukotriene (LTD4) induced contraction of guinea pig tracheal spiral strips in vitro, leukotriene antagonist activity
Format: cell-based, guinea pig (adult male albino Hartley strain)
Conditions: for In Vitro -Log KB: 30 min
Protocol: The leukotriene antagonist activity of the compounds of this invention is measured by the ability of the compounds to inhibit the leukotriene induced contraction of guinea pig tracheal tissues in vitro. The following methodology was employed:
In vitro: Guinea pig (adult male albino Hartley strain) tracheal spiral strips of approximate dimensions 2 to 3 mm cross-sectional width and 3.5 cm length were bathed in modified Krebs buffer in jacketed 10 ml tissue bath and continuously aerated with 95% O2 /5% CO2. The tissues were connected via silk suture to force displacement transducers for recording isometric tension. The tissues were equilibrated for 1 hr., pretreated for 15 minutes with meclofenamic acid (1 μM) to remove intrinsic prostaglandin responses, and then pretreated for an additional 30 minutes with either the test compound or vehicle control. A cumulative concentration-response curve for LTD4 on triplicate tissues was generated by successive increases in the bath concentration of the LTD4. In order to minimize intertissue variability, the contractions elicited by LTD4 were standardized as a percentage of the maximum response obtained to a reference agonist, carbachol […].
Calculations: The averages of the triplicate LTD4 concentration-response curves both in the presence and absence of the test compound were plotted on log graph paper. The concentration of LTD4 needed to elicit 30% of the contraction elicited by carbachol was measured and defined as the EC30. The -log KB value for the test compound was determined by the following equations:
2. KB = concentration of test compound/(X-1)

[1] = antagonism of LTD4 contraction, guinea pig trachea, EC30 based (30% of carbachol contraction), meclofenamic acid 1 μM, test compound 30 min pretreatment, KB = concentration of test compound/(X-1), read-out: In Vitro -Log KB (converted)
[2] = antagonism of LTD4 contraction, guinea pig trachea, EC30 based (30% of carbachol contraction), meclofenamic acid 1 μM, test compound 30 min pretreatment, KB = concentration of test compound/(X-1)
[3] = method as for the table (LTD4, guinea pig trachea), read-out: -log KB value (converted)

Kb [1] | Compound | also measured
0.126 µM | CCCCCCCCCCCC/C=C\[C@H](Sc1nc(C)c(C(=O)O)n1C)[C@H](O)CCC(=O)O (relative stereo) [4-Hydroxy-5-(1,4-dimethyl-5-carboxy-2-imidazolylthio)-6(Z)-nonadecenoic acid] | 
0.794 µM | CCCCCCCCCCCC/C=C\[C@H](Sc1nc(CC(=O)O)cn1C)[C@H](O)CCC(=O)O (relative stereo) [4-Hydroxy-5-(1-methyl-4-carboxymethyl-2-imidazolylthio)-6(Z)-nonadecenoic acid] | 
0.631 µM | CCCCCCCCCCCC/C=C\[C@H](Sc1nc(C)c(CC(N)=O)n1C)[C@H](O)CCC(=O)O (relative stereo) [4-Hydroxy-5-(5-Aminocarbonylmethyl-1,4-dimethyl-2-imidazolylthio)-6(Z)-nonadecenoic Acid] | 
0.316 µM | CCCCCCCCCCCC/C=C\[C@H](Sc1nc(CCC)c(C(=O)O)n1C)[C@H](O)CCC(=O)O (relative stereo) [4-Hydroxy-5-(5-carboxy-1-methyl-4-propyl-2-imidazolylthio)-6(Z)-nonadecenoic Acid] | 
0.2 µM | CCCCCCCCCCCC/C=C\[C@H](Sc1nc(CC)c(C(=O)O)n1C)[C@H](O)CCC(=O)O (relative stereo) [4-Hydroxy-5-(5-carboxy-4-ethyl-1-methyl-2-imidazolylthio)-6-(Z)-nonadecenoic Acid] | 
1.26 µM | CCCCCCCCCCCC/C=C\[C@H](Sc1nc(C(C)C)c(C(=O)O)n1C)[C@H](O)CCC(=O)O (relative stereo) [4-Hydroxy-5-(5-carboxy-4-isopropyl-1-methyl-2-imidazolylthio)-6(Z)-nonadecenoic Acid] | 
0.398 µM | CCCCCCCCCCCC/C=C\[C@H](Sc1nc(C)c(CC(=O)O)n1C)[C@H](O)CCC(=O)O (relative stereo) [4-Hydroxy-5-(5-carboxymethyl-1,4-dimethyl-2-imidazolylthio)-6(Z)-nonadecenoic Acid] | 
1.26 µM | CCCCCCCCCCCC/C=C\[C@H](Sc1nc(C)c(CCC(=O)O)n1C)[C@H](O)CCC(=O)O (relative stereo) [4-Hydroxy-5-[5-(2-carboxyethyl)-1,4-dimethyl-2-imidazolylthio]-6(Z)-nonadecenoic Acid] | 
5.01 µM | C=CCn1ccnc1S[C@@H](/C=C\CCCCCCCCCCCC)[C@H](O)CCC(=O)O (relative stereo) [Formula (III), R1 CH2 =CHCH2, R2 H, R3 H, 4-Hydroxy-5-(1-allyl-2-imidazolylthio)-6(Z)-nonadecenoic acid] | 
5.01 µM | CCCCCCCCCCCC/C=C\[C@H](Sc1nccn1CC)[C@H](O)CCC(=O)O (relative stereo) [Formula (III), R1 CH3 CH2, R2 H, R3 H, 4-Hydroxy-5-(1-ethyl-2-imidazolylthio)-6(Z)-nonadecenoic acid, sodium salt] | 
0.158 µM | CCCCCCCCCCCC/C=C\[C@H](Sc1ncc(C(=O)O)n1C)[C@H](O)CCC(=O)O (relative stereo) [Formula (III), R1 CH3, R2 --CO2 H, R3 H, 4-Hydroxy-5-(1-methyl-5-carboxy-2-imidazolylthio)-6(Z)-nonadecenoic acid] | 
3.98 µM | CCCCCCCCCCCC/C=C\[C@H](Sc1ncc(C(N)=O)n1C)[C@H](O)CCC(=O)O (relative stereo) [Formula (III), R1 CH3, R2 --CONH2, R3 H, 4-Hydroxy-5-(1-methyl-5-carboxamido-2-imidazolylthio)-6(Z)-nonadecenoic acid] | 
2.51 µM | CCCCCCCCCCCC/C=C\[C@H](Sc1nc(C)c(C)n1C)[C@H](O)CCC(=O)O (relative stereo) [Formula (III), R1 CH3, R2 CH3, R3 CH3, 4-Hydroxy-5-(1,4,5-trimethyl-2-imidazolylthio)-6(Z)-nonadecenoic acid] | 
1.26 µM | CCCCCCCCCCCC/C=C\[C@H](Sc1nccn1C)[C@H](O)CCC(=O)O (relative stereo) [Formula (III), R1 CH3, R2 H, R3 H, 4-Hydroxy-5-(1-methyl-2-imidazolylthio)-6(Z)-nonadecenoic acid] | 
2 µM | CCCCCCCCCCCC/C=C\[C@H](Sc1nc(C(=O)O)c[nH]1)[C@H](O)CCC(=O)O (relative stereo) [Formula (III), R1 H, R2 --CO2 H, R3 H, 4-Hydroxy-5-[4(5)-carboxy-2-imidazolylthio]-6(Z)-nonadecenoate acid] | 
1 µM | CCCCCCCCCCCC/C=C\[C@H](Sc1nccn1C)[C@H](O)CCCC(=O)O (relative stereo) [Formula (IV), R1 CH3, R2 H, R3 H, 5-Hydroxy-6-(1-methyl-2-imidazolylthio)-7(Z)-eicosenoic acid] | 
 | CCCCCCCCCCCC/C=C\C(Sc1nc(C)c(C(=O)O)n1C)C(O)CCC(=O)O (single isomer, unassigned) [Formula (III), R1 ^(a) CH3, R2 --CO2 H, R3 CH3 (first isomer line), 4-Hydroxy-5-(1,4-dimethyl-5-carboxy-2-imidazolylthio)-6(Z)-nonadecenoic acid] | In Vitro -Log KB [2]: 6.9
 | CCCCCCCCCCCC/C=C\C(Sc1nc(C)c(C(=O)O)n1C)C(O)CCC(=O)O (single isomer, unassigned) [Formula (III), R1 ^(a) CH3, R2 --CO2 H, R3 CH3 (second isomer line), 4-Hydroxy-5-(1,4-dimethyl-5-carboxy-2-imidazolylthio)-6(Z)-nonadecenoic acid] | In Vitro -Log KB [2]: 6.8
1.58 µM | CCCCCCCCCCCCC#CC(Sc1nc(C)c(C(=O)O)n1C)C(O)CCC(=O)O (stereo not drawn) [4-Hydroxy-5-(1,4-dimethyl-5-carboxy-2-imidazolylthio)-6-nonadecynoic acid] | 
0.316 µM | CCCCCCCCCCCC/C=C\C(CCCC(=O)O)Sc1ncc(C(=O)O)n1C (stereo not drawn) [5-(1-methyl-5-carboxy-2-imidazolylthio)-6(Z)-nonadecenoic acid] | 
 | CC(C)=CCCCCCCCCC/C=C\C(Sc1nc(C)c(C(=O)O)n1C)C(O)CCC(=O)O (stereo not drawn) [Example 25, 4-Hydroxy-5-(5-carboxy-1,4-dimethyl-2-imidazolylthio)-18-methyl-6(Z),17-nonadecadienoic Acid] | Kb [3]: 0.0316 µM
 | Cc1nc(SC(/C=C\CCCCCCCCc2ccccc2)C(O)CCC(=O)O)n(C)c1C(=O)O (stereo not drawn) [Example 26, 4-Hydroxy-5-(5-carboxy-1,4-dimethyl-2-imidazolylthio)-15-phenyl-6(Z)-pentadecenoic Acid] | Kb [3]: 0.251 µM
0.2 µM | CCCCCCCCCCCC/C=C\C(Sc1ncn(C)c1C(=O)O)C(O)CCC(=O)O (stereo not drawn) [Formula (V), R4 CH3, R5 H, R6 --CO2 H, 4-Hydroxy-5-(1-methyl-5-carboxy-4-imidazolylthio)-6(Z)-nonadecenoic acid] | 
2 µM | CCCCCCCCCCCC/C=C\C(Sc1cn(C)cn1)C(O)CCC(=O)O (stereo not drawn) [Formula (V), R4 ^(b) CH3, R5 H, R6 H, 4-Hydroxy-5-(1-methyl-4-imidazolylthio)-6(Z)-nonadecenoic acid, sodium salt] | 
